Reference: patent US8853359B2, “Endokinin C/D-derived peptides” (University of Miyazaki, priority 2009, dated 2014)

Columns and labels:
Format in all cases: in vivo, rat
[1] = tested on: formalin-induced pain behavior; test: formalin-induced pain behavior (flinching) after intrathecal pre-administration of peptide
Procedure: In Example 5, 10^−3M (10 nmol/10 μl) D-EKC/D (3), (5), or (7), Spantide I, or saline (10 μl) was administered to intrathecally catheterized rats via catheters and then 4 hours later, 50 μl of 2% formalin was administered subcutaneously to hind paws of rats. The number of flinching (pain behavior) was determined for 60 minutes after formalin administration, so that the degree of pain could be evaluated. During the 10-minute period after formalin administration (referred to as phase I), pain behavior was measured once every 2 minutes (1 minute per measurement). During the period from 10 minutes to 60 minutes after formalin administration (referred to as phase II), pain behavior was measured once every 5 minutes (1 minute per measurement), so that the degree of pain could be evaluated. During phase I, behavior (phasic pain) resulting from chemical stimulation accompanying formalin administration was observed. During phase II, tonic pain following the phasic pain was observed.
The horizontal axis indicates time (minutes) after formalin administration and the vertical axis indicates the measured number of pain behavior per minute.

[2] = tested on: carrageenan-induced inflammation; test: carrageenan-induced increase in paw size after subcutaneous pre-administration of peptide to plantar; settings: 10^-3M (100 nmol/100 μl) subcutaneous to plantar
Procedure: 100 μl of saline, 10^−3M (100 nmol/100 μl) D-EKC/D (3), or 10^−3M (100 nmol/100 μl) Spantide II (N^6-[(3-pyridinyl)carbonyl]-D-Lys-L-Pro-3-(3-pyridinyl)-L-Ala-L-Pro-3,4-dichloro-D-Phe-L-Asn-D-Trp-L-Phe-D-Trp-L-Leu-L-Nle-NH2) (SEQ ID NO: 21) was subcutaneously administered to rat plantar. Four (4) hours later, 100 μl (2 mg/100 μl) of 2% carrageenan was subcutaneously administered to rat plantar. Paw size was measured every 10 minutes for 60 minutes after carrageenan administration. The paw size (control) before carrageenan administration was designated as the basal level and increases in paw size were then calculated.
Procedures similar to those in Experiment B were performed, except for administration of carrageenan at 8 hours after administration of saline, D-EKC/D (3), or Spantide II.
Procedures similar to those in Experiment B were performed except that the test with Spantide II was not conducted and carrageenan was administered at 14 hours after administration of saline or D-EKC/D (3).

[3] = tested on: SP-induced thermal hyperalgesia; test: SP-induced thermal hyperalgesia (withdrawal latency) after intrathecal pre-administration of peptide; settings: 10^-3M (10 nmol/10 μl) peptide intrathecal, FIG. 7
Description: In this test, the effects of intrathecal pre-administration with D-EKC/D (1), (2), and (3) on the induction of thermal hyperalgesia following intrathecal administration of SP were confirmed using as an index thermal hyperalgesia, which is one type of pain-related behavior. The effects can be evaluated based on withdrawal latency period, which is the time required for withdrawal response to take place after application of noxious thermal stimulation to plantar using infrared rays.
In Example 4, 10^−3M (10 nmol/10 μl) D-EKC/D (1), (2), or (3) was administered to intrathecally catheterized rats via catheters, intrathecal administration of 10^−6M (10 pmol/10 μl) SP was performed at 4 hours and at 8 hours after administration of D-EKC/D, the presence or the absence of hyperalgesia following intrathecal administration of SP was evaluated based on the time (latency period) required for withdrawal response to take place, the latency period following SP administration in rats pretreated with D-EKC/D and the latency period resulting from administration of SP alone were compared, and thus the effects of preadministration of D-EKC/D (1), (2), and (3) were evaluated.

[4] = tested on: carrageenan-induced inflammation; test: carrageenan-induced increase in paw size after intrathecal pre-administration of peptide
Procedure: In Example 6, 10^−3M (10 nmol/10 μl) D-EKC/D (3), (5), or (7), Spantide I, or saline (10 μl) was administered to intrathecally catheterized rats via catheters. Four hours later, 100 μl of 2% carrageenan (2 mg/100 μl) was subcutaneously administered to rat plantar.
Paw size was measured with time for 60 minutes after carrageenan administration. The paw size (control) before carrageenan administration was designated as the basal level, and the increases in paw size were then calculated.

**Q.** With “Ala-Tyr-Gln-Leu-Glu-His-Thr-Phe-Gln-DTrp-Leu-Leu-NH2 (AYQLEHTFQXLL; HELM PEPTIDE1{A.Y.Q.L.E.H.T.F.Q.[dW].L.L.[am]}$$$$V2.0; N-terminus assumed; SMILES CC(C)C[C@H](NC(=O)[C@H](CC(C)C)NC(=O)[C@@H](Cc1c[nH]c2ccccc12)NC(=O)[C@H](CCC(N)=O)NC(=O)[C@H](Cc1ccccc1)NC(=O)[C@@H](NC(=O)[C@H](Cc1c[nH]cn1)NC(=O)[C@H](CCC(=O)O)NC(=O)[C@H](CC(C)C)NC(=O)[C@H](CCC(N)=O)NC(=O)[C@H](Cc1ccc(O)cc1)NC(=O)[C@H](C)N)[C@@H](C)O)C(N)=O) [D-EKC/D (3)]” as the substance, how does the “numbers of pain behavior during phase I” value ([1]; 10^-3M (10 nmol/10 μl) peptide intrathecal, 2% formalin 4 hours later, 0-10 minutes after formalin) read?
**A.** significantly decreased

**Q.** What about the “numbers of pain behavior during phase II” value ([1]; 10^-3M (10 nmol/10 μl) peptide intrathecal, 2% formalin 4 hours later, 10-60 minutes after formalin) of the same substance?
**A.** significantly decreased

**Q.** What about the “suppressing effects on formalin-induced pain behavior compared with Spantide I” value ([1]; 10^-3M intrathecal, formalin 4 hours later) of the same substance?
**A.** sustained longer compared with the effects of Spantide I

**Q.** And the “increases in paw size accompanying carrageenan-induced inflammation” value (shortened to “increases”) ([2]; carrageenan 4 hours later, FIG. 10B)?
**A.** suppressed increases in paw size accompanying carrageenan-induced inflammation more significantly than administration of Spantide II

**Q.** And the “increases” value ([2]; carrageenan 8 hours later, FIG. 10C)?
**A.** suppressed increases in paw size

**Q.** What about the “increases” value ([2]; carrageenan 14 hours later, FIG. 10D) of the same substance?
**A.** suppressed increases in paw size

**Q.** What about the “effect on latency period following administration of SP” value ([3]; 10^-6M SP 4 hours later, saline about 20 seconds, SP about 13 seconds) of the same substance?
**A.** significantly attenuated

**Q.** And the “effect on latency period following administration of SP” value ([3]; 10^-6M SP 8 hours later)?
**A.** significant attenuation

**Q.** And the “rate of increase of paw sizes” value ([4]; 10^-3M (10 nmol/10 μl) peptide intrathecal, 2% carrageenan 4 hours later, FIG. 9A)?
**A.** significant decreases

**Q.** What about the “effects on paw size and withdrawal time compared with Spantide I” value ([4]; 10^-3M intrathecal, carrageenan 4 hours later) of the same substance?
**A.** sustained to a greater extent than the effects of Spantide I
